Experimental data taken from the supplement of paper PMC10307832.

Legend:
Assay in all cases: relative viability (nuclei count vs DMSO), 5 days (fraction); higher = more cells survive
HOP-62 = tested on: HOP-62
Summary of the method: (§1)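 Lung cancer cell lines in 1536-well plates were dosed by pin tool the day after seeding, either with one drug alone or with a fixed anchor-drug dose plus five library-drug doses (not always all listed) in √10 steps. After 5 days, cells were fixed and their nuclei stained in one step (final 0.05% Triton X-100, 1% formaldehyde, 1 ug/ml Hoechst), then counted on 4× images. Relative viability is the nuclei count in treated wells divided by that in vehicle wells. Values are medians of duplicate plates.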

NCI-H647 = tested on: NCI-H647
Summary of the method: as §1

LOU-NH91 = tested on: LOU-NH91
Summary of the method: as §1

NCI-H460 = tested on: NCI-H460
Summary of the method: as §1

RERF-LC-KJ = tested on: RERF-LC-KJ
Summary of the method: as §1

NCI-H1755 = tested on: NCI-H1755
Summary of the method: as §1

NCI-H1734 = tested on: NCI-H1734
Summary of the method: as §1

NCI-H1915 = tested on: NCI-H1915
Summary of the method: as §1

SW 1573 = tested on: SW 1573
Summary of the method: as §1

A-427 = tested on: A-427
Summary of the method: as §1

NCI-H1792 = tested on: NCI-H1792
Summary of the method: as §1

LC-2-ad = tested on: LC-2-ad
Summary of the method: as §1

PC-3 [JPC-3] = tested on: PC-3 [JPC-3]
Summary of the method: as §1

HCC-78 = tested on: HCC-78
Summary of the method: as §1

NCI-H2126 = tested on: NCI-H2126
Summary of the method: as §1

HCC-15 = tested on: HCC-15
Summary of the method: as §1

NCI-H1975 = tested on: NCI-H1975
Summary of the method: as §1

LXF-289 = tested on: LXF-289
Summary of the method: as §1

SK-LU-1 = tested on: SK-LU-1
Summary of the method: as §1

NCI-H358 = tested on: NCI-H358
Summary of the method: as §1

NCI-H2228 = tested on: NCI-H2228
Summary of the method: as §1

NCI-H2347 = tested on: NCI-H2347
Summary of the method: as §1

SMILES: NC(=O)Nc1cc(-c2cccc(F)c2)sc1C(=O)N[C@H]1CCCNC1 [AZD7762] + CS(=O)(=O)N1CCN(Cc2cc3nc(-c4cccc5[nH]ncc45)nc(N4CCOCC4)c3s2)CC1 [Pictilisib] (partner 1 µM)
- relative viability (HOP-62; first compound 0.01 µM): 0.501
- relative viability (HOP-62; first compound 0.03162 µM): 0.801
- relative viability (HOP-62; first compound 0.1 µM): 0.833
- relative viability (HOP-62; first compound 0.3162 µM): 0.645
- relative viability (HOP-62; first compound 1 µM): 0.268
- relative viability (NCI-H647; first compound 0.03162 µM): 0.559
- relative viability (NCI-H647; first compound 0.1 µM): 0.427
- relative viability (NCI-H647; first compound 0.3162 µM): 0.375
- relative viability (NCI-H647; first compound 1 µM): 0.16
- relative viability (LOU-NH91; first compound 0.01 µM): 0.546
- relative viability (LOU-NH91; first compound 0.03162 µM): 0.555
- relative viability (LOU-NH91; first compound 0.1 µM): 0.473
- relative viability (LOU-NH91; first compound 0.3162 µM): 0.489
- relative viability (LOU-NH91; first compound 1 µM): 0.595
- relative viability (NCI-H460; first compound 0.01 µM): 0.356
- relative viability (NCI-H460; first compound 0.03162 µM): 0.382
- relative viability (NCI-H460; first compound 0.1 µM): 0.417
- relative viability (NCI-H460; first compound 0.3162 µM): 0.342
- relative viability (NCI-H460; first compound 1 µM): 0.175
- relative viability (RERF-LC-KJ; first compound 0.01 µM): 0.521
- relative viability (RERF-LC-KJ; first compound 0.03162 µM): 0.616
- relative viability (RERF-LC-KJ; first compound 0.1 µM): 0.521
- relative viability (RERF-LC-KJ; first compound 0.3162 µM): 0.6
- relative viability (RERF-LC-KJ; first compound 1 µM): 0.431
- relative viability (NCI-H1755; first compound 0.01 µM): 0.471
- relative viability (NCI-H1755; first compound 0.03162 µM): 0.469
- relative viability (NCI-H1755; first compound 0.1 µM): 0.406
- relative viability (NCI-H1755; first compound 0.3162 µM): 0.397
- relative viability (NCI-H1755; first compound 1 µM): 0.241
- relative viability (NCI-H1734; first compound 0.01 µM): 0.538
- relative viability (NCI-H1734; first compound 0.03162 µM): 0.535
- relative viability (NCI-H1734; first compound 0.1 µM): 0.524
- relative viability (NCI-H1734; first compound 0.3162 µM): 0.384
- relative viability (NCI-H1734; first compound 1 µM): 0.293
- relative viability (NCI-H1915; first compound 0.01 µM): 0.931
- relative viability (NCI-H1915; first compound 0.03162 µM): 0.96
- relative viability (NCI-H1915; first compound 0.1 µM): 1.02
- relative viability (NCI-H1915; first compound 0.3162 µM): 0.918
- relative viability (NCI-H1915; first compound 1 µM): 0.924
- relative viability (SW 1573; first compound 0.01 µM): 0.569
- relative viability (SW 1573; first compound 0.03162 µM): 0.479
- relative viability (SW 1573; first compound 0.1 µM): 0.554
- relative viability (SW 1573; first compound 0.3162 µM): 0.54
- relative viability (SW 1573; first compound 1 µM): 0.451
- relative viability (A-427; first compound 0.01 µM): 0.654
- relative viability (A-427; first compound 0.03162 µM): 0.879
- relative viability (A-427; first compound 0.1 µM): 0.762
- relative viability (A-427; first compound 0.3162 µM): 0.734
- relative viability (A-427; first compound 1 µM): 0.49
- relative viability (NCI-H1792; first compound 0.01 µM): 0.323
- relative viability (NCI-H1792; first compound 0.03162 µM): 0.328
- relative viability (NCI-H1792; first compound 0.1 µM): 0.311
- relative viability (NCI-H1792; first compound 0.3162 µM): 0.377
- relative viability (NCI-H1792; first compound 1 µM): 0.431
- relative viability (LC-2-ad; first compound 0.01 µM): 0.438
- relative viability (LC-2-ad; first compound 0.03162 µM): 0.39
- relative viability (LC-2-ad; first compound 0.1 µM): 0.321
- relative viability (LC-2-ad; first compound 0.3162 µM): 0.308
- relative viability (LC-2-ad; first compound 1 µM): 0.196
- relative viability (PC-3 [JPC-3]; first compound 0.01 µM): 0.774
- relative viability (PC-3 [JPC-3]; first compound 0.03162 µM): 0.793
- relative viability (PC-3 [JPC-3]; first compound 0.1 µM): 0.779
- relative viability (PC-3 [JPC-3]; first compound 0.3162 µM): 0.705
- relative viability (PC-3 [JPC-3]; first compound 1 µM): 0.448
- relative viability (HCC-78; first compound 0.01 µM): 0.241
- relative viability (HCC-78; first compound 0.03162 µM): 0.228
- relative viability (HCC-78; first compound 0.1 µM): 0.205
- relative viability (HCC-78; first compound 0.3162 µM): 0.213
- relative viability (HCC-78; first compound 1 µM): 0.18
- relative viability (NCI-H2126; first compound 0.01 µM): 0.491
- relative viability (NCI-H2126; first compound 0.03162 µM): 0.482
- relative viability (NCI-H2126; first compound 0.1 µM): 0.552
- relative viability (NCI-H2126; first compound 0.3162 µM): 0.518
- relative viability (NCI-H2126; first compound 1 µM): 0.612
- relative viability (HCC-15; first compound 0.01 µM): 0.713
- relative viability (HCC-15; first compound 0.03162 µM): 0.792
- relative viability (HCC-15; first compound 0.1 µM): 0.875
- relative viability (HCC-15; first compound 0.3162 µM): 0.789
- relative viability (HCC-15; first compound 1 µM): 0.824
- relative viability (NCI-H1975; first compound 0.01 µM): 0.334
- relative viability (NCI-H1975; first compound 0.03162 µM): 0.304
- relative viability (NCI-H1975; first compound 0.1 µM): 0.288
- relative viability (NCI-H1975; first compound 0.3162 µM): 0.235
- relative viability (NCI-H1975; first compound 1 µM): 0.194
- relative viability (LXF-289; first compound 0.01 µM): 0.754
- relative viability (LXF-289; first compound 0.03162 µM): 0.875
- relative viability (LXF-289; first compound 0.1 µM): 0.809
- relative viability (LXF-289; first compound 0.3162 µM): 0.855
- relative viability (LXF-289; first compound 1 µM): 0.813
- relative viability (SK-LU-1; first compound 0.01 µM): 0.694
- relative viability (SK-LU-1; first compound 0.03162 µM): 0.644
- relative viability (SK-LU-1; first compound 0.1 µM): 0.337
- relative viability (SK-LU-1; first compound 0.3162 µM): 0.176
- relative viability (SK-LU-1; first compound 1 µM): 0.2
- relative viability (NCI-H358; first compound 0.01 µM): 0.363
- relative viability (NCI-H358; first compound 0.03162 µM): 0.358
- relative viability (NCI-H358; first compound 0.1 µM): 0.35
- relative viability (NCI-H358; first compound 0.3162 µM): 0.325
- relative viability (NCI-H358; first compound 1 µM): 0.267
- relative viability (NCI-H2228; first compound 0.01 µM): 0.381
- relative viability (NCI-H2228; first compound 0.03162 µM): 0.539
- relative viability (NCI-H2228; first compound 0.1 µM): 0.396
- relative viability (NCI-H2228; first compound 0.3162 µM): 0.21
- relative viability (NCI-H2228; first compound 1 µM): 0.136
- relative viability (NCI-H2347; first compound 0.01 µM): 0.598
- relative viability (NCI-H2347; first compound 0.03162 µM): 0.721
- relative viability (NCI-H2347; first compound 0.1 µM): 0.623
- relative viability (NCI-H2347; first compound 0.3162 µM): 0.788
- relative viability (NCI-H2347; first compound 1 µM): 0.292
